Measured values: US12495798B2, “Nicotinamide compound and herbicidal composition comprising compound” (KOREA RESEARCH INSTITUTE OF CHEMICAL TECHNOLOGY, priority 2019, dated 2025)

How the values were obtained:
Type in all cases: in vivo
barnyard grass = assay: Herbicidal activity test against upland field weeds (foliar treatment test); conditions: 50 g ai/ha, scale 0-100; for pest or weed control at 50 g/ha: Echinochloa crus-galli
How it was run: (§1)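 Visual 0–100 control ratings relative to untreated plants, taken 14 (or 21) days after spraying foliage at 50 or 75 g a.i./ha. Spray solution: 50% acetone with 0.1% Tween-20; plants kept in greenhouse at 30±5 °C, 14 h light/10 h dark.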

velvetleaf = assay: as above; conditions: 50 g ai/ha; for pest or weed control at 50 g/ha: Abutilon theophrasti, scale 0-100, read-out: Foliar treatment herbicidal activity, velvet leaf; for Foliar treatment herbicidal activity, velvet leaf: scale 0-100
How it was run: as §1

cocklebur = assay: as above; conditions: 50 g ai/ha, scale 0-100; for pest or weed control at 50 g/ha: Xanthium strumarium
How it was run: as §1

black nightshade = assay: as above; design: key to Foliar treatment herbicidal activity, black nightshade: 0 (no control); 100 (complete control); conditions: 50 g ai/ha, scale 0-100; for pest or weed control at 50 g/ha: Solanum nigrum
How it was run: as §1

bindweed = assay: as above; conditions: 50 g ai/ha, scale 0-100
How it was run: as §1

indian jointvetch = assay: as above; conditions: 50 g ai/ha, scale 0-100
How it was run: as §1

quack grass = assay: as above; design: key to Foliar treatment herbicidal activity, quack grass: 0 (no control); 100 (complete control); conditions: 50 g ai/ha, scale 0-100
How it was run: as §1

fall panicum = assay: as above; conditions: 50 g ai/ha, scale 0-100; for pest or weed control at 50 g/ha: Panicum dichotomiflorum
How it was run: as §1

sorghum = assay: as above; design: key to Foliar treatment herbicidal activity, Sorghum: 0 (no control); 100 (complete control); conditions: 50 g ai/ha, scale 0-100; for plant injury at 50 g/ha: Sorghum
How it was run: as §1

crabgrass = assay: as above; conditions: 50 g ai/ha, scale 0-100; for pest or weed control at 50 g/ha: Digitaria sanguinalis
How it was run: as §1

wheat = assay: Phytotoxicity test for upland field crops (foliar treatment test); design: key: 0 (no harm); 9 (complete withered)
How it was run: (§2)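 Spray-booth foliar treatment of greenhouse-grown crops at 19˜300 g a.i./ha. Visual crop injury was scored 0–9 against untreated plants at 7 and 14 days.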

corn = assay: as above; design: key: 0 (no harm); 9 (complete withered)
How it was run: as §2

[1] = 50 g ai/ha, Wheat (7 days after treatment)
[2] = 50 g ai/ha, Wheat (14 days after treatment)
[3] = 100 g ai/ha, Wheat (7 days after treatment)
[4] = 100 g ai/ha, Wheat (14 days after treatment)
[5] = 50 g ai/ha, Corn (7 days after treatment)
[6] = 50 g ai/ha, Corn (14 days after treatment)
[7] = 100 g ai/ha, Corn (7 days after treatment)
[8] = 100 g ai/ha, Corn (14 days after treatment)

Row | Compound | pest or weed control at 50 g/ha (barnyard grass) [%] | pest or weed control at 50 g/ha (velvetleaf) [%] | pest or weed control at 50 g/ha (cocklebur) [%] | Foliar treatment herbicidal activity, black nightshade (black nightshade) | pest or weed control at 50 g/ha (bindweed) [%] | pest or weed control at 50 g/ha (indian jointvetch) [%] | pest or weed control at 50 g/ha (fall panicum) [%] | plant injury at 50 g/ha (sorghum) [%] | pest or weed control at 50 g/ha (crabgrass) [%] | Foliar treatment phytotoxicity, Wheat (wheat; [1]) | Foliar treatment phytotoxicity, Wheat (wheat; [2]) | Foliar treatment phytotoxicity, Wheat (wheat; [3]) | Foliar treatment phytotoxicity, Wheat (wheat; [4]) | Foliar treatment phytotoxicity, Corn (corn; [5]) | Foliar treatment phytotoxicity, Corn (corn; [6]) | Foliar treatment phytotoxicity, Corn (corn; [7]) | Foliar treatment phytotoxicity, Corn (corn; [8]) | pest or weed control at 50 g/ha (black nightshade) [%] | Foliar treatment herbicidal activity, quack grass (quack grass) | Foliar treatment herbicidal activity, barnyard grass (barnyard grass) | also measured
1 | CCCn1nnnc1NC(=O)c1ccc(C(F)(F)F)nc1COCc1nc(C(F)(F)F)n(C)n1 [Compound No. 2-120, 2-(((1-methyl-5-(trifluoromethyl)-1H-1,2,4-triazol-3-yl)methoxy)methyl)-N-(1-propyl-1H-tetrazol-5-yl)-6-(trifluoromethyl)nicotinamide] | 80 | 80 | 90 | 100 | 50 | 60 | 90 | 10 | 95 | 0 | 0 | 0 | 0 | 0 | 0 | 0 | 0 | – | – | – | pest or weed control at 50 g/ha (quack grass): 10%
2 | C=CCn1nnnc1NC(=O)c1ccc(C(F)(F)F)nc1COCc1nc(C(F)(F)F)n(C)n1 [Compound No. 2-121, N-(1-allyl-1H-tetrazol-5-yl)-2-(((1-methyl-5-(trifluoromethyl)-1H-1,2,4-triazol-3-yl)methoxy)methyl)-6-(trifluoromethyl)nicotinamide] | 20 | 40 | 70 | – | 40 | 30 | 50 | 10 | 30 | 0 | 0 | 0 | 0 | 0 | 0 | 0 | 0 | 95 | 0 | – | –
3 | C#CCn1nnnc1NC(=O)c1ccc(C(F)(F)F)nc1COCc1nc(C(F)(F)F)n(C)n1 [Compound No. 2-122] | – | – | – | 95 | – | – | – | – | – | 0 | 0 | 0 | 0 | 0 | 0 | 0 | 0 | – | 30 | 50 | Foliar treatment herbicidal activity, velvet leaf (velvetleaf): 50; Foliar treatment herbicidal activity, Cocklebur (cocklebur): 80; Foliar treatment herbicidal activity, Bindweed (bindweed): 70; Foliar treatment herbicidal activity, Indian jointvetch (indian jointvetch): 70; Foliar treatment herbicidal activity, Fall panicum (fall panicum): 40; Foliar treatment herbicidal activity, Sorghum (sorghum): 0; Foliar treatment herbicidal activity, Crabgrass (crabgrass): 20
4 | Cn1nnnc1NC(=O)c1ccc(C(F)(F)F)nc1COCc1nc(C(F)F)n(C)n1 [Compound No. 2-123] | – | – | – | 98 | – | – | – | – | – | 0 | 0 | 0 | 0 | 3 | 2 | 4 | 4 | – | 40 | 95 | Foliar treatment herbicidal activity, velvet leaf (velvetleaf): 70; Foliar treatment herbicidal activity, Cocklebur (cocklebur): 90; Foliar treatment herbicidal activity, Bindweed (bindweed): 80; Foliar treatment herbicidal activity, Indian jointvetch (indian jointvetch): 70; Foliar treatment herbicidal activity, Fall panicum (fall panicum): 95; Foliar treatment herbicidal activity, Sorghum (sorghum): 70; Foliar treatment herbicidal activity, Crabgrass (crabgrass): 95
5 | CCCn1nnnc1NC(=O)c1ccc(C(F)(F)F)nc1COCc1nc(C(F)F)n(C)n1 [Compound No. 2-124] | – | – | – | 95 | – | – | – | – | – | 0 | 1 | 1 | 1 | 2 | 1 | 3 | 2 | – | 20 | 90 | Foliar treatment herbicidal activity, velvet leaf (velvetleaf): 60; Foliar treatment herbicidal activity, Cocklebur (cocklebur): 80; Foliar treatment herbicidal activity, Bindweed (bindweed): 70; Foliar treatment herbicidal activity, Indian jointvetch (indian jointvetch): 60; Foliar treatment herbicidal activity, Fall panicum (fall panicum): 90; Foliar treatment herbicidal activity, Sorghum (sorghum): 40; Foliar treatment herbicidal activity, Crabgrass (crabgrass): 95
6 | C=CCn1nnnc1NC(=O)c1ccc(C(F)(F)F)nc1COCc1nc(C(F)F)n(C)n1 [Compound No. 2-125, N-(1-allyl-1H-tetrazol-5-yl)-2-(((5-(difluoromethyl)-1-methyl-1H-1,2,4-triazol-3-yl)methoxy)methyl)-6-(trifluoromethyl)nicotinamide] | 60 | 40 | 80 | – | 95 | 60 | 90 | 30 | 95 | 0 | 0 | 0 | 0 | 0 | 0 | 1 | 1 | 95 | – | – | pest or weed control at 50 g/ha (quack grass): 40%
7 | Cn1nc(COCc2nc(C(F)(F)F)ccc2C(=O)Nc2nnnn2C)nc1CF [Compound No. 2-126, 2-(((5-(fluoromethyl)-1-methyl-1H-1,2,4-triazol-3-yl)methoxy)methyl)-N-(1-methyl-1H-tetrazol-5-yl)-6-(trifluoromethyl)nicotinamide] | 80 | 80 | 90 | 100 | 20 | 50 | 80 | 60 | 90 | 0 | 0 | 0 | 0 | 1 | 1 | 3 | 2 | – | 0 | – | –
8 | C=Cc1nc(COCc2nc(C(F)(F)F)ccc2C(=O)Nc2nnnn2C)nn1C [Compound No. 2-127, N-(1-methyl-1H-tetrazol-5-yl)-2-(((1-methyl-5-vinyl-1H-1,2,4-triazol-3-yl)methoxy)methyl)-6-(trifluoromethyl)nicotinamide] | 60 | 30 | 60 | – | 50 | 20 | 40 | 30 | 60 | 0 | 0 | 0 | 0 | 0 | 0 | 0 | 0 | 80 | 0 | – | –
